The source of these data is patent publication US8378098B2, “Imidazol[1,2-α]quinoxalines and derivatives for the treatment of cancers” (Universite de Montpellier I, priority 2007, dated 2013).

Where two headings read alike, the source gives them in different places.

In one data set the test system is A375 melanoma. Nature of the data set: in vitro cytotoxicity (antiproliferative activity) on A375 melanoma line. The class given is cell-based, human. To be noted: for activity compared with EAPB0203: A375, comparing IC50 values of Table 3. The text has this:
Antiproliferative activity was first measured on a cancer cell line of human origin, A375 melanoma.
Imiquimod and fotemustine (Muphoran®) are used as controls in this study.
(§1) Several human carcinoma cell lines were used: • Lines A375, M4Be, RPMI7591 from human melanoma. • Line LS174T from colon carcinoma. • Line A 2780 from ovarian carcinoma. • The Raji line from B lymphoma. • Line MCF7 from breast carcinoma.
IC50 (concentration of the product tested which inhibits 50% of the maximum cell proliferation observed in the control wells) is determined graphically from the curve of the percentage of cell proliferation as a function of concentration of the product tested.

A further data set deals with LS174T (colon cancer). Briefly: in vitro cytotoxicity on LS174T colon cancer line. The conditions noted are these: Homo sapiens, Table 2, unit inferred. The class given is cell-based.
Description: as §1

The nature of another data set: in vivo. The conditions noted are these: rat. As to the method: (§2) Methods of assaying compounds EAPB0203, EAPB0503 and EAPB0603 by high performance liquid chromatography and detection by mass spectrometry (LC/ESI-MS) were developed and validated in human and rat plasmas. Pre-treatment of the samples consists of a liquid solid extraction preceded by precipitation of plasma proteins in acid medium. The chromatographic column used is C8 Zorbax eclipse XDB and the mobile phase (gradient) a mixture of acetonitrile and formate buffer (pH 3) (flow rate, 0.8 ml/min). The […] from 92 to 113%. The extraction coefficients are higher than 72%. The quantification limit is 5 μg/l for all analytes. Stability tests of the compounds in the matrices were also carried out. These methods were used to determine the pharmacokinetic parameters of compounds EAPB0203, EAPB0503 and EAPB0603 in the rat. The lethal doses 50% of compounds EAPB0203 and EAPB0503 are respectively 14.8 and 7.6 mg/kg.

The test system of a further data set is Raji (B lymphoma). Briefly: in vitro cytotoxicity on Raji B lymphoma line. To be noted: Table 2, unit inferred. The class given is cell-based, human.
Description: as §1

The test system of a further data set is MCF7 (breast cancer). Briefly: in vitro cytotoxicity on MCF7 breast cancer line. To be noted: Homo sapiens, Table 2, unit inferred. The class given is cell-based.
Description: as §1

Data set [1] can be described thus: lethal doses 50% reported in the pharmacokinetic study. In kind it is in vivo. The conditions noted are these: species and route not stated in the sentence (rat study). As to the method: as §2
The test system of a further data set is M4Be (melanoma). Nature of the data set: in vitro cytotoxicity on M4Be melanoma line. In kind it is cell-based. To be noted: Homo sapiens, read-out: IC50 M4Be.
Description: as §1

The test system of another data set is RPMI7591 (melanoma). Nature of the data set: in vitro cytotoxicity on RPMI7591 melanoma line. The class given is cell-based. To be noted: Homo sapiens, read-out: IC50 RPMI7591.
Description: as §1

A further data set deals with M4Be human melanoma. Briefly: anti-proliferative activity in vivo, M4Be human melanoma xenografted in athymic mice. The conditions noted are these: 20 mg/kg once per week i.p.; sacrifice at tumour volume 2 cm^3. As to the method:
FIG. 1: Effects of fotemustine (20 mg/kg once per week for 3 weeks) and EAPB0203 (20 mg/kg twice per week for 3 weeks) on tumour growth in athymic Swiss mice xenografted with M4Be human melanoma cell line.
Δ, control; ▪, EAPB0203; ●, fotemustine. The data are the results of only one experiment carried out on six mice per group. The results are represented as mean±SEM.
In this study, data are presented relating to the activity of EAPB0203 on the volume of a type of human melanoma tumour model (M4Be lines), xenografted in athymic mice. This study required as a preliminary step several tests of grafts of human melanoma cell lines in athymic mice before establishing the adequate animal model. The in vivo study was performed following the in vitro experiments described previously.
The activity and specificity of EAPB0203 in vivo on tumour growth of human melanoma are evaluated by monitoring tumour development in mice carrying M4Be melanoma treated by administration of fotemustine and EAPB0203 at various doses.
For this study, 18 Swiss nude mice (3 groups of 6 mice) were used. M4Be cancer cells in suspension were injected subcutaneously into the right flank of each athymic Swiss nude female 7-week-old mouse weighing 20-22 g at the beginning of the protocol. The mice were then maintained in a sterile atmosphere and received aseptic food and water. The weight of the mouse and the growth of the tumour in three dimensions were recorded twice a week.
A first group of 6 mice (reference) will receive fotemustine by intra-peritoneal route at a dose of 20 mg/kg once per week for 3 weeks, beginning 7 days after inoculation at the time when the tumour will be visible and palpable. A second group of 6 mice will receive EAPB0203 at the same dose of 20 mg/kg via intra-peritoneal route but twice per week (40 mg/kg per week). The third group (control) of 6 mice will receive only the administration carrier. Tumour volume is calculated by the following formula: length X width X height X 0.52, and is expressed as mean±SEM mm^3.
For fotemustine and EAPB0203, the sequence of administrations is a treatment of three weeks, then two weeks without treatment, and then a second treatment of three weeks.

Where [2] appears, read: Homo sapiens, A-375, A375, Table 3, read-out: IC50.
Where [3] appears, read: Homo sapiens, A-375, A375 melanoma line, Table 1, IC50 and standard deviation, read-out: IC50.
Where [4] appears, read: A375, comparison of IC50 values.

For orientation: IC50 means the midpoint of a concentration-inhibition curve. With `CNc1nc2ccccc2n2c(-c3cccc(C#N)c3)cnc12` [EAPB01503, 1-(3-cyanophenyl)-N-methylimidazo[1,2-a]quinoxalin-4-amine], the IC50 in the data set on A375 melanoma (setting [2]) stood at 27 ± 2.2 µM.

Turning to `CCc1c2c(nc3ccc(OC(=O)N4CCC(N5CCCCC5)CC4)cc13)-c1cc3c(c(=O)n1C2)COC(=O)[C@]3(O)CC` [Irinotecan, irinotecan], the IC50 with LS174T (colon cancer) came to 1.16 ± 0.07 µM.

For `CNc1nc2ccccc2n2c(-c3cccc(O)c3)cnc12` [EAPB0603, 1-(3-hydroxyphenyl)-N-methylimidazo[1,2-a]quinoxalin-4-amine], the “activity compared with EAPB0203” value in the data set with A375 melanoma is “higher than that of EAPB0203”. Besides, the IC50 in the data set on A375 melanoma (setting [2]) was determined as 0.56 ± 0.12 µM. The metabolic relation result in “in vivo” was “active metabolite of EAPB0503”. In addition, the “elimination half-life (metabolite)” value in the data set “in vivo” (iv, 5 mg/kg) was found to be 4.7 h.

Regarding `CN(Cc1cnc2nc(N)nc(N)c2n1)c1ccc(C(=O)N[C@@H](CCC(=O)O)C(=O)O)cc1` [Methothrexate, methothrexate], in the data set with Raji (B lymphoma), the IC50 turned out to be 0.04 ± 0.005 µM.

On to `CNc1nc2ccccc2n2c(-c3cccc(C(F)(F)F)c3)cnc12` [EAPB01103], for which the IC50 in the data set with A375 melanoma (A375, Table 3, read-out: IC50) came to 1.28 ± 0.18 µM.

Take `CNc1nc2ccccc2n2c(-c3cccc([N+](=O)[O-])c3)cnc12` [EAPB01603, 1-(3-nitrophenyl)-N-methylimidazo[1,2-a]quinoxalin-4-amine]: the IC50 in the data set with A375 melanoma (setting [2]) turned out to be 40 ± 3.9 µM.

As for `CN(C)c1nc2ccccc2n2c(CCc3ccccc3)cnc12` [EAPB0204, N,N-Dimethyl-1-(2-phenylethyl)imidazo[1,2-a]quinoxalin-4-amine], in the data set with A375 melanoma (setting [3]), the IC50 worked out at 80.1 ± 7 µM.

For `CCOc1cccc(-c2cnc3c(NC)nc4ccccc4n23)c1` [EAPB0903, 1-(3-ethoxyphenyl)-N-methylimidazo[1,2-a]quinoxalin-4-amine], in the data set with A375 melanoma, the “activity compared with EAPB0203” value was “higher than that of EAPB0203”. The IC50 in the data set on A375 melanoma (setting [2]) was 0.3 ± 0.01 µM.

As to `CC(C)Cc1cnc2c(N(C)C)nc3ccccc3n12` [EAPB0104, 1-Isobutyl-N,N-dimethylimidazo[1,2-a]quinoxalin-4-amine], the IC50 with A375 melanoma (setting [3]) came to 66.3 ± 7.5 µM.

For `Clc1nc2ccccc2n2c(CCc3ccccc3)cnc12` [EAPB0201, 4-Chloro-1-(2-phenylethyl)imidazo[1,2-a]quinoxaline], in the data set on A375 melanoma (setting [3]), the IC50 was 24 ± 0.5 µM.

Take `COc1cccc2c1C(=O)c1c(O)c3c(c(O)c1C2=O)C[C@@](O)(C(=O)CO)C[C@@H]3O[C@H]1C[C@H](N)[C@H](O)[C@H](C)O1` [Doxorubicine, doxorubicin]: in the data set with MCF7 (breast cancer), it took 0.13 ± 0.01 µM to reach half-maximal inhibition (IC50).

The Vd is the apparent volume that relates the amount in the body to the concentration in plasma or blood. A high value points to wide distribution into tissue. As usually defined, the clearance is the volume of plasma or blood freed of the substance per unit of time. Higher therefore signals a high capacity for elimination. Usually half-life stands for the time in which the quantity being followed falls by half. A low value points to fast loss. Take `CNc1nc2ccccc2n2c(-c3cccc(OC)c3)cnc12` [EAPB0503, 1-(3-methoxyphenyl)-N-methylimidazo[1,2-a]quinoxalin-4-amine]: the “lethal doses 50%” value in data set [1] amounted to 7.6 mg/kg. In the data set on A375 melanoma, the “activity compared with EAPB0203” value is recorded as “higher than that of EAPB0203”. For the same compound, the IC50 in the data set with A375 melanoma (setting [2]) is 0.18 ± 0.09 µM. In the data set “in vivo” (iv, 5 mg/kg), the distribution volume (Vd) was 5.6 L/kg, the “area under the curve of plasma concentrations” value stood at 2310 ng·h/mL, the clearance was 36.7 mL/min/kg and the half-life is 1.76 h.

Turning to `CNc1nc2ccccc2n2c(-c3ccccc3OC)cnc12` [EAPB0803, 1-(2-methoxyphenyl)-N-methylimidazo[1,2-a]quinoxalin-4-amine], the IC50 in the data set on A375 melanoma (setting [2]) is 122 ± 25 µM.

With `CNc1nc2ccccc2n2c(-c3cccc(F)c3)cnc12` [EAPB01403, 1-(3-fluorophenyl)-N-methylimidazo[1,2-a]quinoxalin-4-amine], the half-maximal inhibitory concentration (IC50) in the data set on A375 melanoma (setting [2]) is 24.9 ± 0.27 µM.

As for `CNc1nc2ccccc2n2c(-c3cccc(Br)c3)cnc12` [EAPB01003, 1-(3-bromophenyl)-N-methylimidazo[1,2-a]quinoxalin-4-amine], the “activity compared with EAPB0203” value in the data set on A375 melanoma was “higher than that of EAPB0203”. In the data set with A375 melanoma (setting [2]), the IC50 was found to be 0.65 ± 0.02 µM.

As to `COc1nc2ccccc2n2c(CCc3ccccc3)cnc12` [EAPB0206, 4-Methoxy-1-(2-phenylethyl)imidazo[1,2-a]quinoxaline], the IC50 with A375 melanoma (setting [3]) came out at 47.8 ± 5 µM.

On to `CNc1nc2ccccc2n2c(-c3ccccc3)cnc12` [EAPB0403, N-methyl-1-phenylimidazo[1,2-a]quinoxalin-4-amine], for which the IC50 in the data set on A375 melanoma (setting [2]) worked out at 2.19 ± 0.08 µM.

With “1-furan-N-methylimidazo[1,2-a]quinoxalin-4-amine [EAPB01703]”, the IC50 in the data set on A375 melanoma (A375, Table 3, read-out: IC50) is 74.1 ± 3.1 µM.

For the compound `CNc1nc2ccccc2n2cc(-c3cccc(OC)c3)nc12` [N-methyl-2-(3-methoxyphenyl)imidazo[1,2-a]quinoxalin-4-amine], in the data set on A375 melanoma (A375), the “activity times higher than EAPB0203” value is listed as 100 times and the “activity times higher than that of EAPB0503” value was 10 times. Also, the IC50 in the data set on A375 melanoma (Homo sapiens, A-375, melanoma (A375), text b219, read-out: IC50) is 0.018 µM.

For `CNc1nc2ccccc2n2c(-c3cccc(Cl)c3)cnc12` [EAPB01203, 1-(3-chlorophenyl)-N-methylimidazo[1,2-a]quinoxalin-4-amine], in the data set with A375 melanoma (setting [2]), the IC50 came to 1.78 ± 0.35 µM.

Consider `CNc1nc2ccccc2n2c(CC(C)C)cnc12` [EAPB0103, 1-Isobutyl-N-methylimidazo[1,2-a]quinoxalin-4-amine], for which, in the data set with A375 melanoma (setting [3]), the IC50 is 31.6 ± 2 µM.

Regarding `CNc1nc2ccccc2n2c(-c3cccc(C(=O)O)c3)cnc12` [EAPB01303, 1-(3-carboxyphenyl)-N-methylimidazo[1,2-a]quinoxalin-4-amine], the IC50 in the data set on A375 melanoma (setting [2]) turned out to be 3.47 ± 0.55 µM.

Regarding `CNc1nc2ccccc2n2c(-c3ccc(OC)cc3)cnc12` [EAPB0703, 1-(4-methoxyphenyl)-N-methylimidazo[1,2-a]quinoxalin-4-amine], the “activity compared with EAPB0203” value with A375 melanoma is recorded as “higher than that of EAPB0203”. In addition, in the data set on A375 melanoma (setting [2]), the IC50 was 0.37 ± 0.4 µM.

On to `CC(C)Cn1cnc2c(N)nc3ccccc3c21` [Imiquimod, imiquimod], for which the IC50 with MCF7 (breast cancer) was determined as 145 ± 7 µM; in the data set on LS174T (colon cancer) it was 34.4 ± 9.7 µM; in the data set with M4Be (melanoma) (Table 2, unit inferred) it was 33.5 ± 7.7 µM; in the data set on A375 melanoma (Homo sapiens, A-375, Table 2, unit inferred, read-out: IC50 A375), 70.3 ± 4.3 µM; in the data set with Raji (B lymphoma) (Homo sapiens, Raji) it was 139 ± 12 µM; with RPMI7591 (melanoma) (Table 2, unit inferred), 53.7 ± 9.8 µM.

Consider `CCOP(=O)(OCC)C(C)NC(=O)N(CCCl)N=O` (stereo not drawn) [Fotemustine, fotemustine, reference compound], for which the IC50 in the data set on M4Be (melanoma) came out at 326 ± 34 µM; with A375 melanoma (Homo sapiens, A-375, read-out: IC50 A375), 173 ± 24 µM; in the data set on RPMI7591 (melanoma), 125 ± 49 µM. Moreover, the “day on which the last mice were euthanatized” value in the data set with M4Be human melanoma was found to be 76 days.

As for `Nc1nc2ccccc2n2c(CCc3ccccc3)cnc12` [EAPB0202, 1-(2-phenylethyl)imidazo[1,2-a]quinoxalin-4-amine], in the data set on A375 melanoma (setting [4]), the “activity times higher than that of fotemustine” value is recorded as 70 times, the “activity times higher than that of imiquimod” value was determined as 30 times and the “times more active than EAPB0204” value is on record as about 2 times. For the same compound, the IC50 with A375 melanoma (setting [3]) was determined as 2.35 µM.
